Data reported in DBAASP.
Converted amounts (≈) assume the structure as drawn. Each block holds one compound with its values, some of them ahead of it.

Key:
Assay in all cases: ≥ marks a high value that may be exact or a test limit, other limits are often not marked, values filed in µg/mL are converted to µM
[1] = test system: Agrobacterium tumefaciens LBA 4404
[2] = test system: Aspergillus niger IFO 4416
Bacillus cereus IFO 3514 = test system: Bacillus cereus IFO 3514
[3] = test system: Bacillus subtilis IFO 3336
[4] = test system: Candida albicans IFO 1385
Candida boidinii MIP 104 = test system: Candida boidinii MIP 104
[5] = test system: Enterococcus faecalis JCM 8726
[6] = test system: Escherichia coli IFO 3301
[7] = test system: Geobacillus stearothermophilus IFO12550
[8] = test system: Kitasatospora kifunensis MN1
[9] = test system: Levilactobacillus brevis IFO 3345
[10] = test system: Pseudomonas aeruginosa IFO 3445
[11] = test system: Saccharomyces cerevisiae KK4
[12] = test system: Salmonella typhimurium IFO 12529
[13] = test system: Staphylococcus aureus ATCC 33591
[14] = test system: Staphylococcus aureus IFO 13276
[15] = test system: Bacillus subtilis KCTC 3068
[16] = test system: Escherichia coli KCTC 1682
[17] = test system: Pseudomonas aeruginosa CCARM 2095
[18] = test system: Pseudomonas aeruginosa CCARM 2109
[19] = test system: Pseudomonas aeruginosa KCTC 1637
[20] = test system: Salmonella typhimurium KCTC 1926
[21] = test system: Staphylococcus aureus CCARM 3001
[22] = test system: Staphylococcus aureus CCARM 3543
[23] = test system: Staphylococcus aureus KCTC 1621
[24] = test system: Staphylococcus epidermidis KCTC 1917
[25] = test system: Bacteroides fragilis ATCC 25285
Bacteroides fragilis = test system: Bacteroides fragilis
[26] = test system: Candida albicans ATCC 90028
[27] = test system: Clostridium perfringens ATCC 10543
Clostridium septicum = test system: Clostridium septicum
[28] = test system: Clostridium tertium ATCC 19465
[29] = test system: Cutibacterium acnes ATCC 11828
Cutibacterium acnes = test system: Cutibacterium acnes
[30] = test system: Enterobacter cloacae HNTCC 53001
[31] = test system: Enterococcus faecalis ATCC 29212
[32] = test system: Escherichia coli ATCC 25922
Fusobacterium nucleatum = test system: Fusobacterium nucleatum
[33] = test system: Fusobacterium varium ATCC 27725
[34] = test system: Klebsiella pneumoniae KK3 9904
[35] = test system: Peptoniphilus asaccharolyticus ATCC 29743
[36] = test system: Peptostreptococcus anaerobius
[37] = test system: Prevotella melaninogenica
[38] = test system: Proteus mirabilis ATCC 25933
[39] = test system: Pseudomonas aeruginosa ATCC 27853
[40] = test system: Salmonella enterica subsp. enterica serovar Typhimurium LT2
[41] = test system: Staphylococcus aureus NCTC 8325
[42] = test system: Staphylococcus aureus T27/9
[43] = test system: Staphylococcus aureus T7/20
[44] = test system: Staphylococcus aureus T7/5
[45] = test system: Staphylococcus epidermidis RP62A
[46] = test system: Escherichia coli PCM 2057
[47] = test system: Staphylococcus aureus PCM 1944
[48] = test system: Bacillus subtilis ATCC 6633
[49] = test system: Pseudomonas fluorescens ATCC 13525
[50] = test system: Staphylococcus aureus ATCC 2592

SMILES: CC[C@H](C)[C@H](NC(=O)[C@H](CO)NC(=O)[C@H](CO)NC(=O)[C@H](CC(C)C)NC(=O)[C@@H](N)Cc1ccccc1)C(=O)NCC(=O)N[C@@H](CCCCN)C(=O)N[C@H](C(=O)N[C@@H](CC(C)C)C(=O)NCC(=O)N[C@@H](CC(N)=O)C(=O)N[C@@H](CC(C)C)C(=O)N[C@@H](CC(C)C)C(N)=O)[C@@H](C)CC [FLSSIGKILGNLL]
MIC [25]: ≥ 50 µM
MIC (Bacteroides fragilis): ≥ 50 µM
MIC [26]: ≥ 160 µM
MIC [27]: 25 µM (≈ 34.3 µg/mL)
MIC (Clostridium septicum): ≥ 50 µM
MIC [28]: 12.5 µM (≈ 17.2 µg/mL)
MIC [29]: 6 µM (≈ 8.24 µg/mL)
MIC (Cutibacterium acnes): 12.5 µM (≈ 17.2 µg/mL)
MIC [30]: ≥ 40 µM
MIC [31]: 40 µM (≈ 54.9 µg/mL)
MIC [32]: 40 µM (≈ 54.9 µg/mL)
MIC (Fusobacterium nucleatum): ≥ 50 µM
MIC [33]: ≥ 50 µM
MIC [34]: ≥ 80 µM
MIC [35]: ≥ 50 µM
MIC [36]: 25 µM (≈ 34.3 µg/mL)
MIC [37]: 25 µM (≈ 34.3 µg/mL)
MIC [38]: ≥ 100 µM
MIC [39]: 160 µM (≈ 220 µg/mL)
MIC [40]: ≥ 50 µM
MIC [41]: 10 µM (≈ 13.7 µg/mL)
MIC [42]: ≥ 40 µM
MIC [43]: 20 µM (≈ 27.5 µg/mL)
MIC [44]: 20 µM (≈ 27.5 µg/mL)
MIC [45]: 20 µM (≈ 27.5 µg/mL)

SMILES: CC[C@H](C)[C@@H]1NC(=O)[C@H](CO)NC(=O)[C@H](CCCCN)NC(=O)[C@@H](N)CSSC[C@@H](C(=O)O)NC(=O)[C@H](Cc2ccccc2)NC1=O [CKSIFC]
MIC [46]: ≥ 1430 µM
MIC [47]: ≥ 1430 µM

SMILES: CC[C@H](C)[C@H](NC(=O)[C@H](CCCCN)NC(=O)[C@H](CC(C)C)NC(=O)[C@H](Cc1ccccc1)NC(=O)[C@H](CO)NC(=O)[C@H](CC(C)C)NC(=O)[C@H](Cc1ccccc1)NC(=O)[C@H](CCCN=C(N)N)NC(=O)[C@H](CO)NC(=O)[C@H](CC(C)C)NC(=O)[C@@H](N)CO)C(=O)N[C@H](C(=O)N[C@@H](Cc1ccc(O)cc1)C(=O)N1CCC[C@H]1C(=O)N1CCC[C@H]1C(=O)N[C@@H](C)C(=O)N[C@@H](Cc1ccccc1)C(N)=O)C(C)C [SLSRFLSFLKIVYPPAF]
MIC [48]: 25.2 µM (≈ 50 µg/mL)
MIC [49]: ≥ 50.4 µM
MIC [50]: 25.2 µM (≈ 50 µg/mL)

Results, then the compound that gave them:

MIC [1]: 6.74 µM (≈ 10 µg/mL)
MIC [2]: ≥ 33.7 µM
MIC (Bacillus cereus IFO 3514): ≥ 269 µM
MIC [3]: 6.74 µM (≈ 10 µg/mL)
MIC [4]: ≥ 67.4 µM
MIC (Candida boidinii MIP 104): 6.74 µM (≈ 10 µg/mL)
MIC [5]: 6.74 µM (≈ 10 µg/mL)
MIC [6]: 6.74 µM (≈ 10 µg/mL)
MIC [7]: 6.74 µM (≈ 10 µg/mL)
MIC [8]: ≥ 269 µM
MIC [9]: 6.74 µM (≈ 10 µg/mL)
MIC [10]: 6.74 µM (≈ 10 µg/mL)
MIC [11]: ≥ 67.4 µM
MIC [12]: ≥ 101 µM
MIC [13]: ≥ 33.7 µM
MIC [14]: ≥ 33.7 µM
SMILES: NC(N)=NCCC[C@H](NC(=O)[C@H](Cc1cnc[nH]1)NC(=O)[C@H](CCCN=C(N)N)NC(=O)[C@H](Cc1cnc[nH]1)NC(=O)[C@H](CCCN=C(N)N)NC(=O)[C@H](Cc1cnc[nH]1)NC(=O)[C@H](CCCN=C(N)N)NC(=O)[C@H](Cc1cnc[nH]1)NC(=O)[C@@H](N)CCCN=C(N)N)C(=O)N[C@@H](Cc1cnc[nH]1)C(=O)O [RHRHRHRHRH]

MIC [15]: 4 µM (≈ 6.16 µg/mL)
MIC [16]: 4 µM (≈ 6.16 µg/mL)
MIC [17]: 16 µM (≈ 24.7 µg/mL)
MIC [18]: 16 µM (≈ 24.7 µg/mL)
MIC [19]: 4 µM (≈ 6.16 µg/mL)
MIC [20]: 2 µM (≈ 3.08 µg/mL)
MIC [21]: 8 µM (≈ 12.3 µg/mL)
MIC [22]: 4 µM (≈ 6.16 µg/mL)
MIC [23]: 2 µM (≈ 3.08 µg/mL)
MIC [24]: 4 µM (≈ 6.16 µg/mL)
SMILES: CC(C)C[C@H](NC(=O)[C@H](Cc1c[nH]c2ccccc12)NC(=O)[C@H](CCCCN)NC(=O)[C@H](CC(C)C)NC(=O)[C@H](Cc1c[nH]c2ccccc12)NC(=O)[C@H](CC(C)C)NC(=O)[C@H](CCCCN)NC(=O)[C@H](Cc1c[nH]c2ccccc12)NC(=O)[C@H](CC(C)C)NC(=O)[C@@H](N)CCCCN)C(=O)N[C@@H](CCCCN)C(N)=O [KLWKLWLKWLK]
